Test results published in patent US9234004B2, “Antimicrobial peptides” (Agency for Science, Technology and Research, priority 2010, dated 2016).
Converted amounts (≈) assume the structure as drawn. Where two headings read alike, the source gives them in different places. Ends that are not written are not given here. Peptide text beside a SMILES is read from it.

Key:
Format in all cases: cell-based
E. coli = system: E. coli
Protocol: (§1) Microbial cells were firstly re-constituted from its lyophilized form according to the manufacturer's protocol. Bacterial cells were cultured in tryptic soy broth (TSB) at 37° C., and yeast cells were cultured in yeast mould broth (YMB) at room temperature under constant shaking at 100 rpm. Broth containing an antimicrobial peptide was prepared at various concentrations (0.98, 1.95, 3.90, 7.81, 15.63, 31.25, 62.5, 125, 250, 500 mg/L) and transferred into a 96-well tissue culture plate (100 μL/well). Microorganism was first inoculated overnight to enter its log growth-phase. An equal volume of microorganism solution (100 μL) was added into each well of the 96-well plate containing the antimicrobial peptide. Prior to this mixing, the concentration of microorganism solution was adjusted to give an initial optical density (O.D.) reading of 0.1-0.2 at 600 nm wavelength. The growth of the microorganism was observed upon introducing the antimicrobial peptide by measuring the O.D. readings at 2 hour intervals for up to 8 hours. […] Broth containing microbial cells was used as the negative control, and each test was carried out in 6 replicates. The standard deviations of the 6 readings were reported as the error bars.

B. subtilis = system: B. subtilis
Protocol: as §1

C. albicans = system: C. albicans
Protocol: as §1

rat red blood cells = test: Hemolytic activity test
Protocol: Peptides were obtained from GL Biochem (Shanghai, China), and their fidelity was further confirmed via matrix-assisted laser desorption/ionization time-of-flight mass spectroscopy (MALDI-TOF MS, Model Autoflex II, Bruker Daltonics Inc., U.S.A.), using α-cyano-4-hydroxycinnamic acid as matrix. The purity of the peptides was also tested to be more than 95% with analytical reverse phase (RP)-HPLC. α-Cyano-4-hydroxycinnamic acid (HCCA) was purchased from Sigma-Aldrich (Singapore) and used in saturated acetonitrile/water (1:1 volume ratio) after being re-crystallized. Sodium dodecyl sulphate (SDS) micelle solution (10% w/v in DI water) was obtained from 1st Base (Malaysia) and used upon dilution to the desirable concentration range. Tryptic soy broth (TSB) powder and yeast mould broth (YMB) powder were purchased from BD Diagnostics (Singapore) and used to prepare the microbial broths according to the manufacturer's instructions. Phosphate-buffered saline solution at 10× concentration was purchased from 1st Base (Malaysia) and used after dilution to the desired concentration. Ethanol (analytical grade, 99%) and glutaraldehyde (synthetic grade, 50% in H2O) were purchased from Sigma Aldrich (Singapore) and used as received. […] Red blood cells used in the experiments were obtained from rats maintained at the Animal Handling Units of the Biomedical Research Centers (Singapore). Human peripheral blood mononuclear cells (PBMCs) were extracted from healthy blood donors and maintained with RPMI medium supplemented with 10% lowendotoxin fetal bovine serum (FBS) and 1% penicillin-streptomycin. Granulocyte macrophage-colony stimulating factor (GM-CSF) and lipopolysaccharide were purchased from Sigma-Aldrich and used as received.
Fresh red blood cells were washed with PBS for three times, and were subjected to 25 times dilution with PBS to reach a concentration of approximately 4% (in volume) of the blood cells. The red blood cell suspension (100 μL) was placed into a 96-well cell culture plate and mixed with 100 μL of the antimicrobial peptide solution in PBS at concentrations of 0.98, 1.95, 3.90, 7.81, 15.63, 31.25, 62.5, 125, 250, 500 mg/L. The mixture was then incubated at 37° C. for 1 hour to allow for the hemolysis process to take place. At the end of incubation time, the non-hemolysed red blood cells were separated by centrifugation at 13000 g for 5 minutes. Aliquots (100 μL) of the supernatant were transferred into a new 96-well plate, and the hemoglobin release was measured by checking the UV-absorbance of the samples at 576 nm using a microplate reader (TECAN, Switzerland). Two controls were provided in this assay: an untreated red blood cell suspension in PBS was used as the negative control, and a solution containing red blood cells lysed with 0.1% Triton-X was used as the positive control. Each assay was performed in 6 replicates, and the data were expressed as means and standard deviations of the 6 replicates. Percentage of hemolysis was calculated using the following formula: Hemolysis (%)=[(O.D.576 nm of the treated sample−O.D.576 nm of the negative control)/(O.D.576 nm of positive control−O.D.576 nm of negative control)]×100%. Field Emission-Scanning Electron Microscopy (FE-SEM) Analysis of Bacterial Cells

P. aeruginosa = system: P. aeruginosa
Protocol: as §1

[1] = 8 hours incubation, tryptic soy broth, 37° C.
[2] = 8 hours incubation, yeast mould broth, room temperature
[3] = rat red blood cells, 37° C., 1 hour

“AARRAARRAARR-NH2 [(AARR)3, AARRAARRAARR-NH2]” was tested, and the “MIC E. coli” value (E. coli; 8 h) was over 500 µg/mL, the “MIC B. subtilis” value (B. subtilis; 8 h) was over 500 µg/mL and the “MIC C. albicans” value (C. albicans; 8 h) was over 500 µg/mL. For the same compound, the “HC50 (50% hemolytic concentration)” value (rat red blood cells; red cells of rat, 1 h) was over 500 mg/L.
MLLKKLLKKM-NH2 [MLLKKLLKKM-NH2] was tested, and the “MIC E. coli” value (E. coli; 8 h) was over 500 µg/mL, the “MIC B. subtilis” value (B. subtilis; 8 h) was 125 µg/mL and the “MIC P. aeruginosa” value (P. aeruginosa; 8 h) was 500 µg/mL. The “MIC C. albicans” value (C. albicans; 8 h) was 500 µg/mL and the “HC50 (50% hemolytic concentration)” value (rat red blood cells; red cells of rat, 1 h) was over 2500 mg/L.
With “FFRRFFRRFFRR-NH2 [(FFRR)3, FFRRFFRRFFRR-NH2]” the “MIC E. coli” value (E. coli; 8 h) was over 500 µg/mL, the “MIC B. subtilis” value (B. subtilis; 8 h) was 31.3 µg/mL and the “MIC C. albicans” value (C. albicans; 8 h) was 125 µg/mL. For the same compound, the “hemolysis at the MIC against B. subtilis” value (rat red blood cells) was “less than 5%”, the “hemolysis at the MIC level for C. albicans” value (rat red blood cells) was 12-24% and the “HC50 (50% hemolytic concentration)” value (rat red blood cells; red cells of rat, 1 h) was over 500 mg/L.
FFRRFFRR-NH2 [(FFRR)2, FFRRFFRR-NH2] was tested, and the “MIC E. coli” value (E. coli; 8 h) was over 500 µg/mL, the “MIC B. subtilis” value (B. subtilis; 8 h) was 125 µg/mL and the “MIC C. albicans” value (C. albicans; 8 h) was over 500 µg/mL. For the same compound, the “HC50 (50% hemolytic concentration)” value (rat red blood cells; red cells of rat, 1 h) was over 500 mg/L.
For LLKKLLKKC-NH2 [LLKKLLKKC-NH2], the “MIC E. coli” value (E. coli; 8 h) was over 500 µg/mL, the “MIC B. subtilis” value (B. subtilis; 8 h) was 125 µg/mL and the “MIC P. aeruginosa” value (P. aeruginosa; 8 h) was 63 µg/mL. The “MIC C. albicans” value (C. albicans; 8 h) was 250 µg/mL and the “HC50 (50% hemolytic concentration)” value (rat red blood cells; red cells of rat, 1 h) was over 2500 mg/L.
LLKKLLKKLLKKC-NH2 [LLKKLLKKLLKKC-NH2] was tested, and the “MIC E. coli” value (E. coli; [1]) was 150 µg/mL, the “MIC B. subtilis” value (B. subtilis; [1]) was 16 µg/mL and the “MIC P. aeruginosa” value (P. aeruginosa; 8 hours incubation) was 16 µg/mL. The “MIC C. albicans” value (C. albicans; [2]) was 63 µg/mL and the “HC50 (50% hemolytic concentration)” value (rat red blood cells; [3]) was about 402 mg/L.
With `CC(C)C[C@H](NC(=O)[C@H](CC(C)C)NC(=O)[C@H](CCCCN)NC(=O)[C@H](CCCCN)NC(=O)[C@H](CC(C)C)NC(=O)[C@H](CC(C)C)NC(=O)[C@H](CCCCN)NC(=O)[C@H](CCCCN)NC(=O)[C@H](CC(C)C)NC(=O)[C@H](CC(C)C)NC(=O)[C@@H](N)CS)C(=O)N[C@@H](CCCCN)C(=O)N[C@@H](CCCCN)C(=O)N[C@@H](CS)C(N)=O` [CLLKKLLKKLLKKC-NH2] (H-CLLKKLLKKLLKKC-NH2) the “MIC E. coli” value (E. coli; [1]) was 125 µg/mL (≈ 74.8 µM), the “MIC B. subtilis” value (B. subtilis; [1]) was 31 µg/mL (≈ 18.5 µM) and the “MIC P. aeruginosa” value (P. aeruginosa; 8 hours incubation) was 125 µg/mL (≈ 74.8 µM). The “MIC C. albicans” value (C. albicans; [2]) was 125 µg/mL (≈ 74.8 µM) and the “HC50 (50% hemolytic concentration)” value (rat red blood cells; [3]) was about 82 mg/L.
With MLLKKLLKKLLKKM-NH2 [MLLKKLLKKLLKKM-NH2] the “MIC E. coli” value (E. coli; [1]) was 250 µg/mL, the “MIC B. subtilis” value (B. subtilis; [1]) was 31 µg/mL and the “MIC P. aeruginosa” value (P. aeruginosa; 8 hours incubation) was 31 µg/mL. For the same compound, the “MIC C. albicans” value (C. albicans; [2]) was 125 µg/mL and the “HC50 (50% hemolytic concentration)” value (rat red blood cells; [3]) was about 158 mg/L.
For `CC(C)C[C@H](NC(=O)[C@H](CC(C)C)NC(=O)[C@H](CCCCN)NC(=O)[C@H](CCCCN)NC(=O)[C@H](CC(C)C)NC(=O)[C@H](CC(C)C)NC(=O)[C@@H](N)CS)C(=O)N[C@@H](CCCCN)C(=O)N[C@@H](CCCCN)C(=O)N[C@@H](CS)C(N)=O` [CLLKKLLKKC-NH2] (H-CLLKKLLKKC-NH2), the “MIC E. coli” value (E. coli; 8 h) was 225 µg/mL (≈ 189 µM), the “MIC B. subtilis” value (B. subtilis; 8 h) was 125 µg/mL (≈ 105 µM) and the “MIC P. aeruginosa” value (P. aeruginosa; 8 h) was 125 µg/mL (≈ 105 µM). The “MIC C. albicans” value (C. albicans; 8 h) was 250 µg/mL (≈ 210 µM) and the “HC50 (50% hemolytic concentration)” value (rat red blood cells; red cells of rat, 1 h) was over 2500 mg/L.
“FFRRFFRRFFRRFFRR-NH2 [(FFRR)4, FFRRFFRRFFRRFFRR-NH2]” was tested, and the “MIC E. coli” value (E. coli; 8 h) was over 50 µg/mL, the “MIC B. subtilis” value (B. subtilis; 8 h) was 20 µg/mL and the “MIC C. albicans” value (C. albicans; 8 h) was over 50 µg/mL. The “hemolysis at the MIC against B. subtilis” value (rat red blood cells) was “around 50%” and the “HC50 (50% hemolytic concentration)” value (rat red blood cells; red cells of rat, 1 h) was about 26 mg/L.
With “LLRRLLRRLLRR-NH2 [(LLRR)3, LLRRLLRRLLRR-NH2]” the “MIC E. coli” value (E. coli; 8 h) was over 500 µg/mL, the “MIC B. subtilis” value (B. subtilis; 8 h) was 15.6 µg/mL and the “MIC C. albicans” value (C. albicans; 8 h) was 500 µg/mL. The “hemolysis at the MIC against B. subtilis” value (rat red blood cells) was “less than 5%”, the “hemolysis at the MIC level for C. albicans” value (rat red blood cells) was 12-24% and the “HC50 (50% hemolytic concentration)” value (rat red blood cells; red cells of rat, 1 h) was over 500 mg/L.
In the case of “LLKKLLKKLLKK-NH2 [(LLKK)3, LLKKLLKKLLKK-NH2]”, the “MIC E. coli” value (E. coli; 8 h) is reported as over 500 µg/mL, the “MIC B. subtilis” value (B. subtilis; 8 h) is reported as 31.3 µg/mL and the “MIC C. albicans” value (C. albicans; 8 h) is reported as 125 µg/mL. For the same compound, the “hemolysis at the MIC against B. subtilis” value (rat red blood cells) was “less than 5%” and the “HC50 (50% hemolytic concentration)” value (rat red blood cells; red cells of rat, 1 h) was over 500 mg/L.
For “LLRRLLRRLLRRLLRR-NH2 [(LLRR)4, LLRRLLRRLLRRLLRR-NH2]”, the “MIC E. coli” value (E. coli; 8 h) was over 50 µg/mL, the “MIC B. subtilis” value (B. subtilis; 8 h) was 10 µg/mL and the “MIC C. albicans” value (C. albicans; 8 h) was over 50 µg/mL. The “hemolysis at the MIC against B. subtilis” value (rat red blood cells) was “around 50%” and the “HC50 (50% hemolytic concentration)” value (rat red blood cells; red cells of rat, 1 h) was about 12 mg/L.
